Assay results reported in US5405869A, “Anti-tumor platinum complexes” (Istituto Nazionale per la Ricerca sul Cancro, priority 1991, dated 1995).

Key:
leukemia cells Jurkat = settings: read-out: ID50, incorporation of tritiated thymidine at 48 hours
Description: (§1) The evaluation of the cytotoxic activities of the compounds (1) was carried out "in vitro" measuring, according to known methods, the inhibition of the colony formation, the cell viability (Trypan blu) and the incorporation of tritiated thymidine in tumoral and normal cells.

leukemia cells K562 = settings: read-out: ID50; K562, incorporation of tritiated thymidine at 48 hours
Description: as §1

leukemia cells P388 = settings: read-out: ID50; P388, incorporation of tritiated thymidine at 48 hours
Description: as §1

## cis-diamino-chloro-(4-amino)benzoate-platinum(II) hydrochloride [Compound 1A]
Leukemia cells Jurkat
  IC50: 21.3 µM
Leukemia cells K562
  IC50: 26.3 µM
Leukemia cells P388
  IC50: 11.4 µM
